Assay [1] concerns the target T1, Phe223Leu MTHFR (Escherichia coli, UniProt P0AEZ1, F223L). Briefly: NADH-CH2-H4folate oxidoreductase assay, steady-state. In kind it is biochemical.
For assay [2], the target named is T2, Phe223Ala MTHFR (Escherichia coli, UniProt P0AEZ1, F223A). Briefly: Oxidative half-reaction with CH2-H4folate, stopped-flow. In kind it is biochemical.
For assay [3], the system named is wild-type MTHFR. As to conditions: 25 °C, pH 7.2, cited from earlier work.
Assay [4] has as its target T2, Phe223Ala MTHFR. The assay is described as follows: NADH-CH2-H4folate oxidoreductase assay, steady-state.
In assay [5] the test system is wild-type MTHFR. As to conditions: 25 °C, cited from earlier work.
The target of assay [6] is T1, Phe223Leu MTHFR. The assay is described as follows: Oxidative half-reaction with CH2-H4folate, stopped-flow. The format is biochemical.
For assay [7], the target named is T1, Phe223Leu MTHFR. Briefly: Reaction of reduced enzyme with menadione, stopped-flow. The format is biochemical. Conditions: […] μM menadione, within dead time of the instrument, data not shown.
In assay [8] the target is T2, Phe223Ala MTHFR. The assay is described as above. In kind it is biochemical. As to conditions: […] μM menadione, within dead time of the instrument, data not shown.
Assay [9] deals with wild-type MTHFR. As to conditions: 25 °C, pH 7.2, cited from earlier work. The source holds these as a separate data set.
Assay [10] has as its target T1, Phe223Leu MTHFR. The assay is described as follows: NADH-menadione oxidoreductase assay, steady-state. The format is biochemical.
The test system of assay [11] is wild-type MTHFR. Conditions: 25 °C, pH 7.2; cited from earlier work.
Assay [12] deals with PheA2. Conditions: read-out: Km for NADH; 53 °C; cited from earlier work.
The subject of assay [13] is HpaC. Conditions: read-out: Km for NADH; 30 °C; cited from earlier work.
The target in assay [14] is T2, Phe223Ala MTHFR. The assay is described as follows: NADH-menadione oxidoreductase assay, steady-state. The format is biochemical. As to conditions: […] μM menadione, varying NADH, 25 °C, pH 7.2.
Assay [15] has as its target T2, Phe223Ala MTHFR. The assay is described as follows: Reductive half-reaction with NADH, stopped-flow. The format is biochemical.
Assay [16] has as its target T1, Phe223Leu MTHFR. Briefly: Reductive half-reaction with NADH, stopped-flow. The format is biochemical.
Assay [17] concerns the target T1, Phe223Leu MTHFR. Briefly: NADPH binding. Conditions: data not shown.
The mark [18] stands for this setting: 25 °C, pH 7.2, anaerobic, 450 nm.

“And” between values parts separate entries of the source, which are not always exact repeats. Equal entries are not always repeated. Where two headings read alike, the source gives them in different places.

The Ki is a measure of affinity in units of concentration, obtained from inhibition or displacement. By Kd is commonly meant the constant that tells how readily two partners part at equilibrium. For orientation: kcat means the number of substrate molecules converted per active site and unit of time at saturation. What is called Km is the substrate concentration at which the rate is half of its maximum. In the case of `Nc1nc2c(c(=O)[nH]1)N1CN(c3ccc(C(=O)N[C@@H](CCC(=O)O)C(=O)O)cc3)C[C@H]1CN2` [CH2-H4folate, 5,10-methylenetetrahydrofolate], the Ki in assay [1] is 160 ± 27 µM; in assay [3] (read-out: Ki for CH2-H4folate), 320 ± 25 µM. In addition, the “CH2-H4folate concentration above which inhibition was seen” value in [1] (1000 μM NADH) was “exceeding 100 μM”. Besides, the “theoretical turnover number calculated from the two half-reactions” value is 17 s⁻¹ in assay [1] (eq 8, ping-pong bi-bi) and 4.0 s⁻¹ in assay [4] (eq 9, slow phase of oxidation). Also, the Kd in assay [2] is 500 ± 230 µM; in [5] (read-out: Kd for CH2-H4folate, pH 7.2) it was 11 ± 1 µM; in assay [6] it was 9 ± 2 µM. Further, the “change in standard free binding energy for CH2-H4folate” value in assay [2] came out at 2.3 kcal/mol. In addition, the “decrease in affinity for CH2-H4folate compared to wild-type” value in [2] came to 45 fold. Moreover, in assay [2], the “slower rate of oxidation compared to slow phase of wild-type” value is 2 fold. For the same molecule, the “k5’ maximal rate constant, slow phase” value in assay [2] (25 °C, pH 7.2, anaerobic, slow phase (~16% of absorbance change)) is 4.5 ± 1.1 ^e s^−1. Also, the kcat is 10.4 ± 1.0 s⁻¹ in assay [3]; 2.9 s⁻¹ and 2.9 ± 0.5 s⁻¹ in assay [4] (anaerobic, 25 °C, pH 7.2). Further, the Km in [3] (read-out: Km for CH2-H4folate) is 500 ± 100 nM. Besides, the “decrease in kcat compared to wild-type” value in [4] was 4 fold. Besides, the “k5’, slow phase” value in [5] (pH 7.2, slow phase) was 10.3 ± 1.0 ^e s^−1. The “increase in rate of oxidation compared to slow phase of wild-type enzyme” value in [6] was 3 fold.

As to `CC1=CC(=O)c2ccccc2C1=O` [menadione], the “time of reaction of reduced enzyme with menadione” value in [7] and in assay [8] was at most 3 ms in each case.

For the molecule NADH, the “k2’” value in assay [9] was 55 ± 6 s⁻¹. Further, in [9] (read-out: Kd for NADH), the Kd is 32 ± 5 µM. In assay [10], the “increase in Km for NADH compared to wild-type” value stood at 7 fold. In addition, the catalytic constant (kcat) in [10] ([…] μM menadione, varying NADH, 25 °C, pH 7.2) is 31 ± 4 s⁻¹; in assay [11] it was 55 ± 8.3 s⁻¹; in assay [14] it was 22 ± 4 s⁻¹. Further, the Km in [12] is 8.8 µM; in assay [13] it was 36.8 µM. The “k2’ maximal observed rate constant for reduction” value amounted to 40 ± 2 s⁻¹ in assay [15] (setting [18]) and 35 ± 1 s⁻¹ in [16] (setting [18]). The “change in standard free binding energy for NADH” value in assay [15] (at 298 K, from 40-fold increase in Kd) was determined as 2.2 kcal/mol. The “increase in Kd for NADH over wild-type enzyme” value in assay [16] turned out to be 14 fold.

Consider NADPH, for which the “ability to bind NADPH” value in [17] is “no ability to bind NADPH”.

The values above are taken from article PMC2805098 (Biochemistry, 2009).
